Like-named read-outs stand apart in the source and are kept apart here.
Assays:
SARS-CoV-2 3CL protease = SARS-CoV-2 3CL protease (Severe acute respiratory syndrome coronavirus 2, UniProt P0DTD1); assay: biochemical; details: 50% SARS-CoV-2 3CL protease inhibitory concentration, read-out: IC50
SARS-CoV-2 = assay: microbe, parasite or virus in culture; assay type: cell-based; details: Severe acute respiratory syndrome coronavirus 2, VeroE6/TMPRSS2, 72 h, 50% SARS-CoV-2 infected cell death inhibitory concentration, VeroE6/TMPRSS2 cells, 3 days culture

Row | Compound | IC50 (SARS-CoV-2 3CL protease; given as class symbols) | EC50 (SARS-CoV-2; class symbols) | IC50 (SARS-CoV-2 3CL protease; RapidFire MS) | EC50 (SARS-CoV-2; CellTiter-Glo 2.0)
1 | COc1ccc(Nc2nc(=O)n(-c3cncc(C)c3)c(=O)n2Cc2ccc(F)c(C#N)c2)c(Cl)c1 [II-0165] | < 100 nM | < 1000 nM |  | 
2 | Cc1cncc(-n2c(=O)nc(Nc3ccc4c(c3)CCCO4)n(Cc3ccc(F)c(C#N)c3)c2=O)c1 [II-0166] | < 100 nM | < 1000 nM |  | 
3 | Cc1cncc(-n2c(=O)nc(Nc3cc4cn(C)nc4cc3Br)n(Cc3ccc(F)c(C#N)c3)c2=O)c1 [II-0167] | < 100 nM | < 1000 nM |  | 
4 | CC(C)n1cc2cc(Nc3nc(=O)n(-c4cncc5ccccc45)c(=O)n3Cc3ccc(F)c(C#N)c3)ccc2n1 [II-0168] | < 100 nM | < 1000 nM |  | 
5 | COc1ccc(Nc2nc(=O)n(-c3cncc4ccccc34)c(=O)n2Cc2ccc(F)c(C#N)c2)c(C)c1 [II-0169] | < 100 nM | < 1000 nM |  | 
6 | Cc1cncc(-n2c(=O)nc(Nc3cc4cn(C)nc4cc3Cl)n(Cc3cccc(F)c3C)c2=O)c1 [II-0171] | < 100 nM | < 1000 nM |  | 
7 | Cc1cncc(-n2c(=O)nc(Nc3cc4c(cc3C)OCC4)n(Cc3ccc(F)c(C#N)c3)c2=O)c1 [II-0172] | < 100 nM | < 1000 nM |  | 
8 | Cc1cncc(-n2c(=O)nc(Nc3ccc4nn(C)cc4c3)n(Cc3ccc(F)c(C#N)c3)c2=O)c1 [II-0173] |  |  | 15 nM | 272 nM
9 | COc1ccc(Nc2nc(=O)n(-c3cncc(C)c3)c(=O)n2Cc2ccc(F)c(C#N)c2)c(Br)c1 [II-0174] | < 100 nM | < 1000 nM |  | 
10 | Cc1cncc(-n2c(=O)nc(Nc3cc4cn(C)nc4cc3Cl)n(Cc3ccc(F)c(F)c3F)c2=O)c1 [II-0175] | < 100 nM | < 1000 nM |  | 
11 | Cc1nc2ccc(Nc3nc(=O)n(-c4cncc5ccccc45)c(=O)n3Cc3ccc(F)c(C#N)c3)cc2o1 [II-0176] | < 100 nM | < 1000 nM |  | 
12 | Cc1cncc(-n2c(=O)nc(Nc3cc4cn(C)nc4cc3Cl)n(Cc3cc(F)cc(Cl)c3)c2=O)c1 [II-0177] | < 100 nM | < 1000 nM |  | 
13 | COc1ccc(Nc2nc(=O)n(-c3cncc4ccccc34)c(=O)n2Cc2ccc(F)c(C#N)c2)c(F)c1 [II-0178] | < 100 nM | < 1000 nM |  | 
14 | Cn1cnc(Cn2c(=O)nc(Nc3cc4cn(C)nc4cc3Cl)n(Cc3ccc(F)c(Br)c3)c2=O)n1 [II-0179] | < 100 nM | 1000 to 10000 nM |  | 
15 | COc1ccc(Nc2nc(=O)n(-c3cncc(C)c3)c(=O)n2Cc2ccc(F)c(C#N)c2)c(F)c1 [II-0180] | < 100 nM | < 1000 nM |  | 
16 | Cc1cncc(-n2c(=O)nc(Nc3cc4cn(C)nc4cc3Cl)n(Cc3cc(C#N)ccc3Cc3cccc(Cl)c3)c2=O)c1 [II-0181] | < 100 nM | < 1000 nM |  | 
17 | COc1ccc(Nc2nc(=O)n(-c3cncc(C)c3)c(=O)n2Cc2ccc(F)c(C#N)c2)cc1 [II-0182] | < 100 nM | < 1000 nM |  | 
18 | Cc1cncc(-n2c(=O)nc(Nc3ccc4nn(C)nc4c3)n(Cc3ccc(F)c(C#N)c3)c2=O)c1 [II-0183] | < 100 nM | < 1000 nM |  | 
19 | Cn1cnc(Cn2c(=O)nc(Nc3cc4cn(C)nc4cc3Cl)n(Cc3cc(F)c(F)c(C#N)c3)c2=O)n1 [II-0184] | < 100 nM | 1000 to 10000 nM |  | 
20 | Cc1cncc(-n2c(=O)nc(Nc3cc4cn(C)nc4cc3Cl)n(Cc3ccc(F)cc3F)c2=O)c1 [II-0185] | < 100 nM | < 1000 nM |  | 
21 | Cc1cncc(-n2c(=O)nc(Nc3cc4cn(C)nc4cc3Cl)n(Cc3cc(Cl)cc(C#N)c3)c2=O)c1 [II-0186] | < 100 nM | 1000 to 10000 nM |  | 
22 | Cc1cncc(-n2c(=O)nc(Nc3cc4cn(C)nc4cc3Cl)n(Cc3cccc(F)c3F)c2=O)c1 [II-0187] | < 100 nM | < 1000 nM |  | 
23 | Cc1cncc(-n2c(=O)nc(Nc3cc4cn(C)nc4cc3Cl)n(Cc3cccc(F)c3Cl)c2=O)c1 [II-0188] | < 100 nM | < 1000 nM |  | 
24 | Cn1cnc(Cn2c(=O)nc(Nc3cc4cn(C)nc4cc3Cl)n(Cc3cc(F)cc(F)c3F)c2=O)n1 [II-0189] | < 100 nM | 1000 to 10000 nM |  | 
25 | Cn1cnc(Cn2c(=O)nc(Nc3cc4cn(C)nc4cc3Cl)n(Cc3ccc(F)c(F)c3F)c2=O)n1 [II-0190] | < 100 nM | 1000 to 10000 nM |  | 
26 | Cc1cncc(-n2c(=O)nc(Nc3cc4sc(C)nc4cc3C)n(Cc3ccc(F)c(C#N)c3)c2=O)c1 [II-0191] | < 100 nM | < 1000 nM |  | 

Row | Compound | IC50 (SARS-CoV-2 3CL protease; given as class symbols) | EC50 (SARS-CoV-2; class symbols) | IC50 (SARS-CoV-2 3CL protease; RapidFire MS) | EC50 (SARS-CoV-2; CellTiter-Glo 2.0)
27 | Cc1nc2cc(C)c(Nc3nc(=O)n(-c4cncc5ccccc45)c(=O)n3Cc3ccc(F)c(C#N)c3)cc2o1 [II-0192] |  |  | 37 nM | 454 nM
28 | Cc1cncc(-n2c(=O)nc(Nc3cc4sc(C)nc4cc3Cl)n(Cc3ccc(F)c(C#N)c3)c2=O)c1 [II-0193] | < 100 nM | 1000 to 10000 nM |  | 
29 | Cc1cncc(-n2c(=O)nc(Nc3ccc4oc(C)c(C)c4c3)n(Cc3ccc(F)c(C#N)c3)c2=O)c1 [II-0195] | < 100 nM | 1000 to 10000 nM |  | 
30 | Cc1cncc(-n2c(=O)nc(Nc3ccc4oc(C)cc4c3)n(Cc3ccc(F)c(C#N)c3)c2=O)c1 [II-0196] | < 100 nM | < 1000 nM |  | 
31 | Cc1cncc(-n2c(=O)nc(Nc3ccc4nc(C)sc4c3)n(Cc3ccc(F)c(C#N)c3)c2=O)c1 [II-0197] | < 100 nM | < 1000 nM |  | 
32 | Cc1nc2ccc(Nc3nc(=O)n(-c4cncc5ccccc45)c(=O)n3Cc3ccc(F)c(C#N)c3)cc2s1 [II-0198] | < 100 nM | < 1000 nM |  | 
33 | Cc1cncc(-n2c(=O)nc(Nc3cc4cn(C)nc4cc3Cl)n(Cc3cc(F)ccc3F)c2=O)c1 [II-0199] | < 100 nM | < 1000 nM |  | 
34 | N#Cc1cc(Cn2c(Nc3ccc4ncccc4c3)nc(=O)n(-c3cncc4ccccc34)c2=O)ccc1F [II-0200] | < 100 nM | 1000 to 10000 nM |  | 
35 | Cc1cncc(-n2c(=O)nc(Nc3cc4cn(C)nc4cc3Cl)n(Cc3cc(F)cc(F)c3)c2=O)c1 [II-0201] | < 100 nM | < 1000 nM |  | 
36 | Cn1cnc(Cn2c(=O)nc(Nc3cc4cn(C)nc4cc3Cl)n(Cc3ccc(F)cc3F)c2=O)n1 [II-0202] | < 100 nM | 1000 to 10000 nM |  | 
37 | Cc1cncc(-n2c(=O)nc(Nc3ccc4c(c3)CCO4)n(Cc3cc(F)c(F)c(F)c3)c2=O)c1 [II-0203] | < 100 nM | < 1000 nM |  | 
38 | Cc1cncc(-n2c(=O)nc(Nc3ccc4ncccc4c3)n(Cc3ccc(F)c(C#N)c3)c2=O)c1 [II-0204] | < 100 nM | 1000 to 10000 nM |  | 
39 | Cc1cncc(-n2c(=O)nc(Nc3cc4cn(C)nc4cc3Cl)n(Cc3cc(Cl)cc(Cl)c3)c2=O)c1 [II-0205] | < 100 nM | 1000 to 10000 nM |  | 
40 | Cn1cnc(Cn2c(=O)nc(Nc3cc4cn(C)nc4cc3Cl)n(Cc3cc(F)cc(F)c3)c2=O)n1 [II-0207] | < 100 nM | 1000 to 10000 nM |  | 
41 | Cc1cncc(-n2c(=O)nc(Nc3cc4cn(C)nc4cc3Cl)n(Cc3cc(Br)cc(C#N)c3)c2=O)c1 [II-0210] | < 100 nM | 1000 to 10000 nM |  | 
42 | Cc1cc(F)cc(Cn2c(Nc3cc4cn(C)nc4cc3Cl)nc(=O)n(-c3cncc(C)c3)c2=O)c1 [II-0212] | < 100 nM | < 1000 nM |  | 
43 | CC1c2ccccc2CN1c1nc(=O)n(Cc2ccc[nH]c2=O)c(=O)n1Cc1cc(F)c(F)c(F)c1 (centres unmarked) [II-0213] | < 100 nM | 1000 to 10000 nM |  | 
44 | Cn1cnc(Cn2c(=O)nc(Nc3cc4cn(C)nc4cc3Cl)n(Cc3cccc(F)c3Cl)c2=O)n1 [II-0214] | < 100 nM | 1000 to 10000 nM |  | 
45 | Cc1cncc(-n2c(=O)nc(Nc3cc4cn(C)nc4cc3Cl)n(Cc3cc(Cl)cc(Br)c3)c2=O)c1 [II-0215] | < 100 nM | 1000 to 10000 nM |  | 
46 | Cn1cnc(Cn2c(=O)nc(Nc3cc4cn(C)nc4cc3Cl)n(Cc3cccc(F)c3F)c2=O)n1 [II-0217] | < 100 nM | 1000 to 10000 nM |  | 
47 | Cn1cnc(Cn2c(=O)nc(Nc3cc4cn(C)nc4cc3Cl)n(Cc3ccc(F)cc3Br)c2=O)n1 [II-0218] | < 100 nM | 1000 to 10000 nM |  | 
48 | Cc1cncc(-n2c(=O)nc(Nc3cc4c(cc3C)OCC4)n(Cc3cc(F)c(F)c(F)c3)c2=O)c1 [II-0219] | < 100 nM | 1000 to 10000 nM |  | 
49 | Cc1cncc(-n2c(=O)nc(Nc3cc4cn(C)nc4cc3Cl)n(Cc3ccc(F)cc3Br)c2=O)c1 [II-0220] | < 100 nM | 1000 to 10000 nM |  | 
50 | Cc1cncc(-n2c(=O)nc(Nc3ccc4nn(C)nc4c3)n(Cc3cc(F)c(F)c(F)c3)c2=O)c1 [II-0221] | < 100 nM | 1000 to 10000 nM |  | 
51 | Cc1cncc(-n2c(=O)nc(N3CCC(C)(C)CC3)n(Cc3cc(F)c(F)c(F)c3)c2=O)c1 [II-0222] | < 100 nM | < 1000 nM |  | 
52 | Cn1cnc(Cn2c(=O)nc(Nc3cc4cn(C)nc4cc3Cl)n(Cc3cccc4ccccc34)c2=O)n1 [II-0223] |  |  | 780 nM | 22500 nM

Reference: US12559474B2, “Triazine derivatives having virus replication inhibitory activity and pharmaceutical composition comprising the same” (priority 2021, dated 2026)
